In US7977366B2, “Treating an inflammatory disorder or inhibiting respiratory burst in adherent neutrophils with chemical inhibitors of neutrophil activation” (Cornell Research Foundation, Inc., priority 2003, dated 2011):
Entries after “also recorded” stand apart in the source; their conditions may differ.

Assays:
human neutrophils = assay: Neutrophil spreading on FBS-coated glass coverslips (phase-contrast microscopy); assay type: cell-based; settings: TNF 100 ng/ml
Description: Glass coverslips were placed in 12 well tissue culture plate and coated with FBS in 5% CO2 at 37° C. for at least 1 h and washed three times with 0.9% saline. Neutrophils (2×10^6) were added to each well containing a FBS-coated glass coverslip and 1 ml of reaction mixture and incubated or not with each compound at 37° C. for 30 min before stimulation with TNF (100 ng/ml), PMA (100 ng/ml) or an equal volume of KRPG. Cells were fixed with 2% paraformaldehyde and 3.7% formaldehyde buffer, and photographed with phase-contrast microscope.
To determine whether any of these compounds are implicated in cytoskeletal rearrangement, neutrophils were treated with a compound of the present invention or DMSO and then activated with PMA or TNF. Human neutrophils, isolated as described herein above were plated on FBS-coated glass coverslips and incubated or not with a compound of the present invention at 37° C. for 30 min, followed by stimulation with TNF (100 ng/ml), PMA (100 ng/ml) or an equal volume of KRPG, fixed, and photographed with phase-contrast microscope. Neutrophils adhere and fully spread when activated. However, cells exposed to TNF after incubation with Comp I-IV were arrested in spreading. These compounds seem to block different stages of cell spreading. […] They display almost round and close to non-stimulated cell morphology to quite advanced, yet arrested phenotype before full spreading. […] None of the compounds impeded cell spreading induced by PMA.

Syk = assay: TNF and adhesion triggered tyrosine phosphorylation of Syk in neutrophils (immunoprecipitation, western blot); assay type: cell-based, human; settings: for inhibition of TNF and adhesion triggered tyrosine phosphorylation of Syk: moderately inhibited; for TNF and adhesion triggered tyrosine phosphorylation (activation) of Syk: result in words
Description: Tissue culture plates (Primaria, Falcon) were coated with 3 ml of FBS in 5% CO2 at 37° C. for at least 1 h and washed twice with 0.9% saline. Isolated human neutrophils (1.5×10^6) were added to each plate containing 4 ml of reaction mixture, incubated with each compound at 37° C. for 30 min, and stimulated with either buffer control or TNF (100 ng/ml). When cells were fully spread (20-40 min), they were treated with 5 mM diisopropylfluorophosphate to inhibit serine proteases and lysed with either 125 μl of SDS lysis buffer (10 mM Tris-HCl, pH 7.6, 150 mM NaCl, 1% SDS, 1 mM PMSF, 1 mM Na pyrophosphate, 1 mM NaF, 1 mM vanadate, 5 μg/ml each of aprotinin, leupeptin, chymostatin, pepstatin A) for western blot, or with 200 μl of non-denaturing modified RIPA buffer (10 mM Tris-HCl, pH 7.6, 150 mM NaCl, 1% Triton-X100, 1 mM PMSF, 1 mM Na pyrophosphate, 1 mM NaF, 1 mM vanadate, 5 μg/ml each of aprotinin, leupeptin, chymostatin, pepstatin A) for immunoprecipitation. The cell lysate was passed through a 26-gauge needle six times to shear DNA and centrifuged at 20,000×g for 15 min to remove cell debris and DNA. The protein concentration was determined using a Bio-Rad (Indianapolis, Ind.) kit. Cell lysates were separated by SDS-PAGE and transferred electrophoretically to nitrocellulose membranes (Schleicher & Schuell, Inc., Keene, N.H.). The membranes were incubated with 5% milk in TBST ([…], 0.1% Tween-20) for 1 h at 37° C. and then overnight at 4° C. with anti-phosphotyrosine antibody (Santa Cruz), anti-Syk antibody (Transduction Laboratories, Newington, N.H.), anti-phospho-specific Pyk2 antibodies (Biosource International, Camarillo, Calif.), or anti-Pyk2 antibody (Upstate Biotech, Waltham, Mass.). Membranes were washed with TBST and incubated with secondary Ab conjugated with HRP in 5% milk in TBST for 1 h at 37° C. After further washing with TBST, bound antibody was detected by enhanced chemiluminescence (Pierce ECL, Amersham Pharmacia, Piscataway, N.J.).
Also investigated was the impact of the compounds of the present invention on several known tyrosine kinases such as Src, Syk, and Pyk2, which are shown to be critical in the signaling pathways triggered by TNF. Kinase assays were performed according to the instructions provided by United Bioinformatica, Inc. ((UBI) Calgary, AB, Canada), from which recombinant Src and Syk were purchased. Briefly, after incubation of recombinant Src (40 U) (UBI, Calgary, AB, Canada) with each compound at RT for 30 min, Src kinase reaction buffer (100 mM Tris-HCl, pH 7.2, 125 mM MgCl2, 25 mM MnCl2, 2 mM EGTA, 0.25 mM NaOV4, 2 mM DTT), Src kinase substrate peptide (375 μM, UBI, Calgary, AB, Canada), and [γ-32P]ATP were added to the enzyme. After incubation at 30° C. for 10 min, the reaction was stopped by addition of 40% trichloroacetic acid (TCA). Samples were transferred to a P81 paper square (UBI, Calgary, AB, Canada), the unincorporated radioactivity was washed off with 0.75% phosphoric acid and acetone, and the assay square was placed in a scintillation counter. For Syk kinase assay, reaction buffer contained 50 mM Tris-HCl, pH 7.5, 0.1 mM EGTA, 0.1 mM NaOV4, 0.15 M 2-mercaptoethanol and substrate was poly (Glu-4-Tyr)(4:1) (CSI Biointernational, France). […] It appears that these compounds block—partially by Comp I and II and completely by Comp III and IV—upstream signaling events for Syk activation rather than directly blocking Syk activity.

## Cc1nc(N/N=C/c2ccccc2O)c2c3c(sc2n1)CCCC3 [Comp I, 2-[(2-Methyl-5,6,7,8-tetrahydro-benzo[4,5]thieno [2,3-a]pyrimidin-4-yl)-hydrazonomethyl]-phenol]
Human neutrophils
  cell spreading triggered by TNF: very heterogeneous morphology
Syk
  inhibition of TNF and adhesion triggered tyrosine phosphorylation of Syk: about 50%

## C(=N\Nc1ncnc2sc3c(c12)CCCC3)/c1cccnc1 [Comp III, N-Pyridin-3-ylmethylene-N-(5,6,7,8-tetrahydro-benzo[4,5] [2,3-a]pyrimidin-4-yl)-hydrazine]
Human neutrophils
  cell spreading triggered by TNF: after extending a few pseudopodia; also recorded: block cell spreading at the earliest stage
Syk
  TNF and adhesion triggered tyrosine phosphorylation (activation) of Syk: completely inhibited

## O=C(CSc1nc2ccccc2s1)N/N=C/c1cc([N+](=O)[O-])ccc1O [Comp IV, (Benzothiazol-2-ylsulfanyl)-acetic acid (2-hydroxy-5-nitro-benzylidene) -hydrazide]
Human neutrophils
  cell spreading triggered by TNF: arrested after flattening and extending several filopodia
Syk
  TNF and adhesion triggered tyrosine phosphorylation (activation) of Syk: completely inhibited

## O=C1CC(c2ccccc2)=NN1c1cccc(Cl)c1 [Comp II, 2-(3-Chloro-phenyl)-5-phenyl-2,4-dihydro-pyrazol-3-one]
Human neutrophils
  cell spreading triggered by TNF: arrested after flattening and extending several filopodia; also recorded: inhibited
Syk
  inhibition of TNF and adhesion triggered tyrosine phosphorylation of Syk: about 50%
  TNF and adhesion triggered tyrosine phosphorylation (activation) of Syk: did not block
